According to patent US7572783B2 (Amgen Inc., priority 2004, dated 2009):

Target: T1, human GHSR1a (Homo sapiens, UniProt Q92847)
T1 construct: expressed in transfected cells
Experiment: Aequorin luminescent functional assay (intracellular Ca2+, ghrelin-stimulated)
Details: stable cell line expressing human GHSR1a and apoaequorin; final ghrelin 3x EC50 (20 nM); read-out: Class (based on IC50 values)
Experimental: IC50 values of inventive compounds may be assessed as follows. An aequorin (Euroscreen) luminescent assay (Stabels et al., 1997) measuring the intracellular Ca^2+ concentration was used as the functional assay to evaluate the potency of the compounds. A stable cell line, expressing human GHSR1a and apoaequorin in mitochondria was used in the aequorin assay. 5×10^6 cells per mL were incubated at room temperature in HyClone Media (Perbio) supplemented with 2 μM coelenterazine (Molecular Probes). After 2 hrs cells were diluted to 1×10^6 cells per ml in HyClone Medium.
50 μL of the cell suspension was added to each well of a 96-well plate containing 50 μL of compound, diluted in HyClone Medium. The cell suspension/compound mixture was incubated for 30 seconds before 50 μL of a 9× EC50 concentrations of a human ghrelin solution, in HyClone Medium, was injected. The final Ghrelin concentration was 3× EC50 (20 nM). Aequorin luminescence elicited by intracellular Ca^2+ in the cells was recorded for a total of 60 seconds with a microplate luminometer (Microlumate, Berthold). IC50 of the compounds in this assay was calculated with Prism 4.

T1 sequence (Q92847 whole entry): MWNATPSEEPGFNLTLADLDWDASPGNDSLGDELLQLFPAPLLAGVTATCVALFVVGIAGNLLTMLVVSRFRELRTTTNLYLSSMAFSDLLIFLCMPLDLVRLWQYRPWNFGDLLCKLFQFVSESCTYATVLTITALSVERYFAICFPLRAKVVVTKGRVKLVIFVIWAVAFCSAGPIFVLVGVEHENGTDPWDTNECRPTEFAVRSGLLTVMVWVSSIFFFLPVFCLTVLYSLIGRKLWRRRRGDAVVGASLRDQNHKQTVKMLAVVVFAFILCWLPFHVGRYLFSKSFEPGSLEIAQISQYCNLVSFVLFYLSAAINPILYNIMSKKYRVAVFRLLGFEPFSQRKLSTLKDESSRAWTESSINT

| IC50 [nM] | SMILES |
| --- | --- |
| ≤ 10 | Cc1cccc(C)c1Oc1ccc2c(c1)C(=O)N([C@@H](C(=O)N1CCC(NC(C)c3ccccc3)CC1)C(C)C)CC(=O)N2 (stereo partly drawn) |
| 10 to 50 | CCc1ccccc1Oc1ccc2c(c1)C(=O)N(C(C(=O)N1CCC(NCc3ccc(F)cc3)CC1)C(C)C)CC(=O)N2 (stereo not drawn) [7-(2-ethyl-phenoxy)-4-{1-[4-(4-fluoro-benzylamino)-piperidine-1-carbonyl]-2-methyl-propyl}-3,4-dihydro-1H-benzo[e][1,4]diazepine-2,5-dione] |
| ≤ 10 | O=C1c2cc(Oc3ccc(F)cc3F)ccc2CCN1[C@@H](c1cccc(CNCC2CC2)n1)C1CC1 [(R)-2-(cyclopropyl(6-((cyclopropylmethylamino)methyl)pyridin-2-yl)methyl)-7-(2,4-difluorophenoxy)-3,4-dihydroisoquinolin-1(2H)-one] |
| ≤ 10 | O=C1c2cc(Oc3ccc(F)cc3F)ccc2CCN1C(c1cccc(CCNCC2CC2)c1)C1CC1 (stereo not drawn) [2-(cyclopropyl-{3-[2-(cyclopropylmethyl-amino)-ethyl]-phenyl}-methyl)-7-(2,4-difluoro-phenoxy)-3,4-dihydro-2H-isoquinolin-1-one] |
| ≤ 10 | Cc1cccc(C)c1Oc1ccc2c(c1)C(=O)N(C(C(=O)NC1CCN(C3CCc4ccccc43)CC1)C(C)C)CC(=O)N2 (stereo not drawn) [2-[7-(2,6-dimethyl-phenoxy)-2,5-dioxo-1,2,3,5-tetrahydro-benzo[e][1,4]diazepin-4-yl]-N-(1-indan-1-yl-piperidin-4-yl)-3-methyl-butyramide] |
| ≤ 10 | Cc1cccc(C)c1Oc1ccc2c(c1)C(=O)N(C(C(=O)N1CCC(NCCc3ccc(F)cc3)CC1)C(C)C)CC(=O)N2 (stereo not drawn) [7-(2,6-dimethyl-phenoxy)-4-(1-{4-[2-(4-fluoro-phenyl)-ethylamino]-piperidine-1-carbonyl}-2-methyl-propyl)-3,4-dihydro-1H-benzo[e][1,4]diazepine-2,5-dione] |
| ≤ 10 | C[C@H](CO)NCc1cccc([C@@H](C2CC2)N2CCc3ccc(Oc4ccc(F)cc4F)cc3C2=O)n1 [2-((R)-cyclopropyl(6-(((R)-1-hydroxypropan-2-ylamino)methyl)pyridin-2-yl)methyl)-7-(2,4-difluorophenoxy)-3,4-dihydroisoquinolin-1(2H)-one] |
| 10 to 50 | CC(C)C(COC(=O)C1CCN(Cc2ccccc2)CC1)N1CC(=O)Nc2ccc(Oc3ccc(F)cc3)cc2C1=O (stereo not drawn) [1-benzyl-piperidine-4-carboxylic acid 2-[7-(4-fluoro-phenoxy)-2,5-dioxo-1,2,3,5-tetrahydro-benzo[e][1,4]diazepin-4-yl]-3-methyl-butyl ester] |
| ≤ 10 | CC(C)NCc1cccc(C(C(C)C)N2CC(=O)Nc3ccc(Oc4ccc(F)cc4F)cc3C2=O)c1 (stereo not drawn) [7-(2,4-difluoro-phenoxy)-4-{1-[3-(isopropylamino-methyl)-phenyl]-2-methyl-propyl}-3,4-dihydro-1H-benzo[e][1,4]diazepine-2,5-dione] |
| 10 to 50 | CC(C)[C@H](C(=O)NC1CCN(Cc2ccccc2)CC1)N1CC(=O)Nc2ccc(Oc3ccc(F)cc3)cc2C1=O |
| ≤ 10 | CC(C)C(C(=O)N1CCC(NC2CC2)CC1)N1CCc2ccc(Oc3ccc(F)cc3F)cc2C1=O (stereo not drawn) [2-{1-[4-(cyclopropyl-amino)-piperidine-1-carbonyl]-2-methyl-propyl}-7-(2,4-difluoro-phenoxy)-3,4-dihydro-2H-isoquinolin-1-one] |
| 10 to 50 | CCc1ccccc1Oc1ccc2c(c1)C(=O)N(C(C(=O)N1CCC(NC3CC3)CC1)C(C)C)CC(=O)N2 (stereo not drawn) [4-[1-(4-cyclopropylamino-piperidine-1-carbonyl)-2-methyl-propyl]-7-(2-ethyl-phenoxy)-3,4-dihydro-1H-benzo[e][1,4]diazepine-2,5-dione] |
| 10 to 50 | Cc1ccccc1Oc1ccc2ncn(C(C(=O)NC3CCN(Cc4ccccc4)CC3)C(C)C)c(=O)c2c1 (stereo not drawn) [N-(1-benzyl-piperidin-4-yl)-3-methyl-2-(4-oxo-6-o-tolyloxy-4H-quinazolin-3-yl)-butyramide] |
| ≤ 10 | CC(C)C(CC1CCC(NC2CC2)CC1)N1CCCc2ccc(Oc3ccc(F)cc3F)cc2C1=O (stereo not drawn) [2-[1-(4-Cyclopropylamino-cyclohexylmethyl)-2-methyl-propyl]-8-(2,4-difluoro-phenoxy)-2,3,4,5-tetrahydro-benzo[c]azepin-1-one] |
| ≤ 10 | CC(C)C(C(=O)N1CCC(NCC2CC2)CC1)N1CCc2ccc(Oc3ccc(F)cc3F)cc2C1=O (stereo not drawn) [2-{1-[4-(cyclopropylmethyl-amino)-piperidine-1-carbonyl]-2-methyl-propyl}-7-(2,4-difluoro-phenoxy)-3,4-dihydro-2H-isoquinolin-1-one] |
| ≤ 10 | CC(C)C(C(=O)N1CCC(NCCc2ccc(F)cc2)CC1)N1CCc2ccc(Oc3ccc(F)cc3F)cc2C1=O (stereo not drawn) [7-(2,4-difluoro-phenoxy)-2-(1-{4-[2-(4-fluoro-phenyl)-ethylamino]-piperidine-1-carbonyl}-2-methyl-propyl)-3,4-dihydro-2H-isoquinolin-1-one] |
| ≤ 10 | CC(C)C(COC1CCN(CC2CC2)CC1)N1CCc2ccc(Oc3ccc(F)cc3F)cc2C1=O (stereo not drawn) [2-[1-(1-cyclopropylmethyl-piperidin-4-yloxymethyl)-2-methyl-propyl]-7-(2,4-difluoro-phenoxy)-3,4-dihydro-2H-isoquinolin-1-one] |
| ≤ 10 | Cc1cc(F)ccc1Oc1ccc2c(c1)C(=O)N(C(C(=O)NC1CCN(Cc3ccccc3)CC1)C(C)C)Cc1ncc(C)n1-2 (stereo not drawn) [N-(1-benzyl-piperidin-4-yl)-2-[8-(4-fluoro-2-methyl-phenoxy)-1-methyl-6-oxo-4H,6H-3,5,10b-triaza-benzo[e]azulen-5-yl]-3-methyl-butyramide] |
| ≤ 10 | O=C1c2cc(Oc3ccc(F)cc3F)ccc2CCN1[C@@H](c1cccc(CNCCF)n1)C1CC1 [(R)-2-(cyclopropyl(6-((2-fluoroethylamino)methyl)pyridin-2-yl)methyl)-7-(2,4-difluorophenoxy)-3,4-dihydroisoquinolin-1(2H)-one] |
| ≤ 10 | CC(C)C(CCC1CCN(CC2CC2)CC1)N1CCc2ccc(Oc3ccc(F)cc3F)cc2C1=O (stereo not drawn) [2-{1-[2-(1-Cyclopropylmethyl-piperidin-4-yl)-ethyl]-2-methyl-propyl}-7-(2,4-difluoro-phenoxy)-3,4-dihydro-2H-isoquinolin-1-one] |
| 50 to 500 | CC(C)C(C(=O)N1CCC(NCCc2ccc(F)cc2)CC1)N1CC(=O)Nc2ccc(Oc3ccccc3C(C)(C)C)cc2C1=O (stereo not drawn) [7-(2-tert-butyl-phenoxy)-4-(1-{4-[2-(4-fluoro-phenyl)-ethylamino]-piperidine-1-carbonyl}-2-methyl-propyl)-3,4-dihydro-1H-benzo[e][1,4]diazepine-2,5-dione] |
| 10 to 50 | Cc1ccccc1Oc1ccc2c(c1)C(=O)N(C(C(=O)N1CCC(NCCc3ccc(F)cc3)CC1)C(C)C)CCN2C (stereo not drawn) [4-(1-{4-[2-(4-fluoro-phenyl)-ethylamino]-piperidine-1-carbonyl}-2-methyl-propyl)-1-methyl-7-o-tolyloxy-1,2,3,4-tetrahydrobenzo[e][1,4]diazepin-5-one] |
| ≤ 10 | CC(C)(CO)NCc1cccc([C@@H](C2CC2)N2CCc3ccc(Oc4ccc(F)cc4F)cc3C2=O)n1 [(R)-2-(cyclopropyl(6-((1-hydroxy-2-methylpropan-2-ylamino)methyl)pyridin-2-yl)methyl)-7-(2,4-difluorophenoxy)-3,4-dihydroisoquinolin-1(2H)-one] |
| ≤ 10 | Cc1cccc(C)c1Oc1ccc2c(c1)C(=O)N(C(C(=O)N1CCC(NCc3ccc(F)cc3)CC1)C(C)C)CC(=O)N2 (stereo not drawn) [7-(2,6-dimethyl-phenoxy)-4-{1-[4-(4-fluoro-benzylamino)-piperidine-1-carbonyl]-2-methyl-propyl}-3,4-dihydro-1H-benzo[e][1,4]diazepine-2,5-dione] |
| ≤ 10 | O=C1c2cc(Oc3ccc(F)cc3F)ccc2CCN1[C@@H](c1cccc(CNC2CC2)n1)C1CC1 [(R)-2-(cyclopropyl(6-((cyclopropylamino)methyl)pyridin-2-yl)methyl)-7-(2,4-difluorophenoxy)-3,4-dihydroisoquinolin-1(2H)-one] |
| 50 to 500 | CC(C)C(COC(=O)NC1CCN(Cc2ccccc2)CC1)N1CC(=O)Nc2ccc(Oc3ccc(F)cc3)cc2C1=O (stereo not drawn) [(1-benzyl-piperidin-4-yl)-carbamic acid 2-[7-(4-fluoro-phenoxy)-2,5-dioxo-1,2,3,5-tetrahydro-benzo[e][1,4]diazepin-4-yl]-3-methyl-butyl ester] |
| ≤ 10 | CC(C)C(c1cccc(CN(C)C)c1)N1CC(=O)Nc2ccc(Oc3ccc(F)cc3F)cc2C1=O (stereo not drawn) [7-(2,4-difluoro-phenoxy)-4-[1-(3-dimethylaminomethyl-phenyl)-2-methyl-propyl]-3,4-dihydro-1H-benzo[e][1,4]diazepine-2,5-dione] |
| ≤ 10 | CC(C)C(C(=O)N1CCC(NCc2ccc(F)cc2)CC1)N1CCc2ccc(Oc3ccc(F)cc3F)cc2C1=O (stereo not drawn) [7-(2,4-difluoro-phenoxy)-2-{1-[4-(4-fluoro-benzylamino)-piperidine-1-carbonyl]-2-methyl-propyl}-3,4-dihydro-2H-isoquinolin-1-one] |
| ≤ 10 | Cc1ccccc1Oc1ccc2c(c1)C(=O)N([C@@H](C(=O)N1CCC(N[C@@H]3CCc4ccccc43)CC1)C(C)C)CCN2 |
| 10 to 50 | CC(C)C(C(=O)OC1CCN(Cc2ccccc2)CC1)N1CC(=O)Nc2ccc(Oc3ccccc3)cc2C1=O (stereo not drawn) [2-(2,5-dioxo-7-phenoxy-1,2,3,5-tetrahydrobenzo[e][1,4]diazepin-4-yl)-3-methyl-butyric acid 1-benzyl-piperidin-4-yl ester] |
